Assay: Blood pressure, 24-h telemetric method, normotensive rats
Format: in vivo, rat
Conditions: 5 mg/kg
Method: The blood pressure of rats treated with the tested compound was measured for a 24 h period after ip treatment (5 mg/kg b.w.) with a special telemetric system Stellar (TSE-Systems, Germany).
Surgery: The operation was carried out over 30 min under sterile conditions. Rats were anaesthetized with ketamine and xylasine (intramuscular injection: 100 mg/kg and 10 mg/kg). Before surgery and for 7 days after, the animals were also treated with cefuroxime (20 mg/kg/day) via intramuscular injection and ketoprofen (5 mg/kg/day) via ip injection. […] The transmitter was sutured to the peritoneal cavity.
The rats were individually caged for 2 weeks to heal after surgical cut. The animals were then placed in pairs in cages to reduce their isolation stress. Blood pressure was measured: before ip administration of the compounds – time 0 min and 24 h thereafter.

[1] = telemetry, after first administration, time 0, n 6
[2] = telemetry, after first administration, time 0.25, n 6
[3] = telemetry, after first administration, time 0.5, n 6
[4] = telemetry, after first administration, time 0.75, n 6
[5] = telemetry, after first administration, time 1, n 6
[6] = telemetry, after first administration, time 1.25, n 6
[7] = telemetry, after first administration, time 1.5, n 6
[8] = telemetry, after first administration, time 1.75, n 6
[9] = telemetry, after first administration, time 2, n 6
[10] = telemetry, after first administration, time 3, n 6
[11] = telemetry, after first administration, time 4, n 6
[12] = telemetry, after first administration, time 5, n 6
[13] = telemetry, after first administration, time 6, n 6
[14] = telemetry, after first administration, time 7, n 6
[15] = telemetry, after first administration, time 8, n 6
[16] = telemetry, after first administration, time 9, n 6
[17] = telemetry, after first administration, time 10, n 6
[18] = telemetry, after first administration, time 11, n 6
[19] = telemetry, after first administration, time 12, n 6
[20] = telemetry, after first administration, time 13, n 6
[21] = telemetry, after first administration, time 14, n 6
[22] = telemetry, after first administration, time 15, n 6
[23] = telemetry, after first administration, time 16, n 6
[24] = telemetry, after first administration, time 17, n 6
[25] = telemetry, after first administration, time 18, n 6
[26] = telemetry, after first administration, time 19, n 6
[27] = telemetry, after first administration, time 20, n 6
[28] = telemetry, after first administration, time 21, n 6
[29] = telemetry, after first administration, time 22, n 6
[30] = telemetry, after first administration, time 23, n 6
[31] = telemetry, after first administration, time 24, n 6
[32] = telemetry, after forteenth administration, time 0, n 6
[33] = telemetry, after forteenth administration, time 0.25, n 6
[34] = telemetry, after seventh administration, time 0, n 6
[35] = telemetry, after seventh administration, time 0.25, n 6
[36] = telemetry, after seventh administration, time 0.5, n 6
[37] = telemetry, after seventh administration, time 0.75, n 6
[38] = telemetry, after seventh administration, time 1, n 6
[39] = telemetry, after seventh administration, time 1.25, n 6
[40] = telemetry, after seventh administration, time 1.5, n 6
[41] = telemetry, after seventh administration, time 1.75, n 6
[42] = telemetry, after seventh administration, time 2, n 6
[43] = telemetry, after seventh administration, time 3, n 6
[44] = telemetry, after seventh administration, time 4, n 6
[45] = telemetry, after seventh administration, time 5, n 6
[46] = telemetry, after seventh administration, time 6, n 6
[47] = telemetry, after seventh administration, time 7, n 6
[48] = telemetry, after seventh administration, time 8, n 6
[49] = telemetry, after seventh administration, time 9, n 6
[50] = telemetry, after seventh administration, time 10, n 6
[51] = telemetry, after seventh administration, time 11, n 6
[52] = telemetry, after seventh administration, time 12, n 6
[53] = telemetry, after seventh administration, time 13, n 6
[54] = telemetry, after seventh administration, time 14, n 6
[55] = telemetry, after seventh administration, time 15, n 6
[56] = telemetry, after seventh administration, time 16, n 6
[57] = telemetry, after seventh administration, time 17, n 6
[58] = telemetry, after seventh administration, time 18, n 6
[59] = telemetry, after seventh administration, time 19, n 6
[60] = telemetry, after seventh administration, time 20, n 6
[61] = telemetry, after seventh administration, time 21, n 6
[62] = telemetry, after seventh administration, time 22, n 6
[63] = telemetry, after seventh administration, time 23, n 6
[64] = telemetry, after seventh administration, time 24, n 6

## N=C(N)N/N=C/c1c(Cl)cc(O)cc1Cl [4HOGuanabenz]
rat, time 0.5
  diastolic pressure, mean: 94.25 mmHg
  systolic pressure, mean: 131.8 mmHg
rat, time 0.75
  diastolic pressure, mean: 87.25 mmHg
  systolic pressure, mean: 118.5 mmHg
rat, time 1
  diastolic pressure, mean: 82.5 mmHg
  systolic pressure, mean: 111.8 mmHg
rat, time 1.25
  diastolic pressure, mean: 78.5 mmHg
  systolic pressure, mean: 107.3 mmHg
rat, time 1.5
  diastolic pressure, mean: 79.75 mmHg
  systolic pressure, mean: 117.5 mmHg
rat, time 1.75
  diastolic pressure, mean: 80.5 mmHg
  systolic pressure, mean: 111.3 mmHg
rat, time 2
  diastolic pressure, mean: 78.75 mmHg
  systolic pressure, mean: 117.5 mmHg
rat, time 3
  diastolic pressure, mean: 77 mmHg
  systolic pressure, mean: 109.8 mmHg
rat, time 4
  diastolic pressure, mean: 80.5 mmHg
  systolic pressure, mean: 117 mmHg
rat, time 5
  diastolic pressure, mean: 81 mmHg
  systolic pressure, mean: 116.5 mmHg
rat, time 6
  diastolic pressure, mean: 77.5 mmHg
  systolic pressure, mean: 119.8 mmHg
rat, time 7
  diastolic pressure, mean: 76.25 mmHg
  systolic pressure, mean: 117.3 mmHg
rat, time 8
  diastolic pressure, mean: 66.75 mmHg
  systolic pressure, mean: 113.3 mmHg
rat, time 9
  diastolic pressure, mean: 83.5 mmHg
  systolic pressure, mean: 131.8 mmHg
rat, time 10
  diastolic pressure, mean: 70.75 mmHg
  systolic pressure, mean: 120.8 mmHg
rat, time 11
  diastolic pressure, mean: 81.5 mmHg
  systolic pressure, mean: 125.3 mmHg
rat, time 12
  diastolic pressure, mean: 77.25 mmHg
  systolic pressure, mean: 123.8 mmHg
rat, time 13
  diastolic pressure, mean: 75.75 mmHg
  systolic pressure, mean: 113 mmHg
rat, time 14
  diastolic pressure, mean: 73.25 mmHg
  systolic pressure, mean: 113.5 mmHg
rat, time 15
  diastolic pressure, mean: 77.5 mmHg
  systolic pressure, mean: 113.3 mmHg
rat, time 16
  diastolic pressure, mean: 79.5 mmHg
  systolic pressure, mean: 121.8 mmHg
rat, time 17
  diastolic pressure, mean: 88.25 mmHg
  systolic pressure, mean: 124.5 mmHg
rat, time 18
  diastolic pressure, mean: 76 mmHg
  systolic pressure, mean: 118.5 mmHg
rat, time 19
  diastolic pressure, mean: 76 mmHg
  systolic pressure, mean: 117.5 mmHg
rat, time 20
  diastolic pressure, mean: 66 mmHg
  systolic pressure, mean: 108.8 mmHg
rat, time 21
  diastolic pressure, mean: 70.5 mmHg
  systolic pressure, mean: 103.3 mmHg
rat, time 22
  diastolic pressure, mean: 74.5 mmHg
  systolic pressure, mean: 110.3 mmHg
rat, time 23
  diastolic pressure, mean: 75.25 mmHg
  systolic pressure, mean: 116.3 mmHg
rat, time 24
  diastolic pressure, mean: 72.75 mmHg
  systolic pressure, mean: 109.5 mmHg
[1]
  diastolic pressure, mean: 80.5 mmHg
  systolic pressure, mean: 126.2 mmHg
[2]
  diastolic pressure, mean: 92.75 mmHg
  systolic pressure, mean: 141 mmHg
[3]
  diastolic pressure, mean: 87.5 mmHg
  systolic pressure, mean: 127.3 mmHg
[4]
  diastolic pressure, mean: 78 mmHg
  systolic pressure, mean: 115.6 mmHg
[5]
  diastolic pressure, mean: 81.38 mmHg
  systolic pressure, mean: 117.3 mmHg
[6]
  diastolic pressure, mean: 76.88 mmHg
  systolic pressure, mean: 111 mmHg
[7]
  diastolic pressure, mean: 75.13 mmHg
  systolic pressure, mean: 106 mmHg
[8]
  diastolic pressure, mean: 80.13 mmHg
  systolic pressure, mean: 112.4 mmHg
[9]
  diastolic pressure, mean: 74.63 mmHg
  systolic pressure, mean: 107 mmHg
[10]
  diastolic pressure, mean: 78.75 mmHg
  systolic pressure, mean: 110.8 mmHg
[11]
  diastolic pressure, mean: 68.75 mmHg
  systolic pressure, mean: 107.9 mmHg
[12]
  diastolic pressure, mean: 80.88 mmHg
  systolic pressure, mean: 114.1 mmHg
[13]
  diastolic pressure, mean: 78 mmHg
  systolic pressure, mean: 111.6 mmHg
[14]
  diastolic pressure, mean: 71 mmHg
  systolic pressure, mean: 111.1 mmHg
[15]
  diastolic pressure, mean: 72.75 mmHg
  systolic pressure, mean: 110.8 mmHg
[16]
  diastolic pressure, mean: 77.88 mmHg
  systolic pressure, mean: 114.6 mmHg
[17]
  diastolic pressure, mean: 77.63 mmHg
  systolic pressure, mean: 114.9 mmHg
[18]
  diastolic pressure, mean: 70.75 mmHg
  systolic pressure, mean: 107.6 mmHg
[19]
  diastolic pressure, mean: 80.25 mmHg
  systolic pressure, mean: 121.9 mmHg
[20]
  diastolic pressure, mean: 74.5 mmHg
  systolic pressure, mean: 114.9 mmHg
[21]
  diastolic pressure, mean: 81.88 mmHg
  systolic pressure, mean: 122.6 mmHg
[22]
  diastolic pressure, mean: 71.63 mmHg
  systolic pressure, mean: 109.4 mmHg
[23]
  diastolic pressure, mean: 72.75 mmHg
  systolic pressure, mean: 108.4 mmHg
[24]
  diastolic pressure, mean: 76.75 mmHg
  systolic pressure, mean: 112.6 mmHg
[25]
  diastolic pressure, mean: 78.75 mmHg
  systolic pressure, mean: 115.3 mmHg
[26]
  diastolic pressure, mean: 79.5 mmHg
  systolic pressure, mean: 117.3 mmHg
[27]
  diastolic pressure, mean: 77 mmHg
  systolic pressure, mean: 117.8 mmHg
[28]
  diastolic pressure, mean: 76.63 mmHg
  systolic pressure, mean: 117.8 mmHg
[29]
  diastolic pressure, mean: 71.5 mmHg
  systolic pressure, mean: 109.5 mmHg
[30]
  diastolic pressure, mean: 73.38 mmHg
  systolic pressure, mean: 109.5 mmHg
[31]
  diastolic pressure, mean: 77.63 mmHg
  systolic pressure, mean: 114.3 mmHg
[32]
  diastolic pressure, mean: 70.25 mmHg
  systolic pressure, mean: 110.5 mmHg
[33]
  diastolic pressure, mean: 90.75 mmHg
  systolic pressure, mean: 139.3 mmHg
[34]
  diastolic pressure, mean: 74.83 mmHg
  systolic pressure, mean: 108.2 mmHg
[35]
  diastolic pressure, mean: 97.5 mmHg
  systolic pressure, mean: 141.8 mmHg
[36]
  diastolic pressure, mean: 76.75 mmHg
  systolic pressure, mean: 114.3 mmHg
[37]
  diastolic pressure, mean: 77.5 mmHg
  systolic pressure, mean: 111.5 mmHg
[38]
  diastolic pressure, mean: 76.75 mmHg
  systolic pressure, mean: 109.3 mmHg
[39]
  diastolic pressure, mean: 74.25 mmHg
  systolic pressure, mean: 106.8 mmHg
[40]
  diastolic pressure, mean: 74 mmHg
  systolic pressure, mean: 107.3 mmHg
[41]
  diastolic pressure, mean: 70.75 mmHg
  systolic pressure, mean: 102 mmHg
[42]
  diastolic pressure, mean: 67.25 mmHg
  systolic pressure, mean: 100.5 mmHg
[43]
  diastolic pressure, mean: 74 mmHg
  systolic pressure, mean: 109 mmHg
[44]
  diastolic pressure, mean: 74.75 mmHg
  systolic pressure, mean: 109.3 mmHg
[45]
  diastolic pressure, mean: 74.25 mmHg
  systolic pressure, mean: 110.3 mmHg
[46]
  diastolic pressure, mean: 79.75 mmHg
  systolic pressure, mean: 113.8 mmHg
[47]
  diastolic pressure, mean: 70.5 mmHg
  systolic pressure, mean: 113.3 mmHg
[48]
  diastolic pressure, mean: 78.75 mmHg
  systolic pressure, mean: 116.3 mmHg
[49]
  diastolic pressure, mean: 75.5 mmHg
  systolic pressure, mean: 119.5 mmHg
[50]
  diastolic pressure, mean: 65.5 mmHg
  systolic pressure, mean: 106 mmHg
[51]
  diastolic pressure, mean: 75.75 mmHg
  systolic pressure, mean: 117.3 mmHg
[52]
  diastolic pressure, mean: 65.5 mmHg
  systolic pressure, mean: 116.8 mmHg
[53]
  diastolic pressure, mean: 79.25 mmHg
  systolic pressure, mean: 121.5 mmHg
[54]
  diastolic pressure, mean: 74 mmHg
  systolic pressure, mean: 111.5 mmHg
[55]
  diastolic pressure, mean: 77.25 mmHg
  systolic pressure, mean: 113.3 mmHg
[56]
  diastolic pressure, mean: 71.5 mmHg
  systolic pressure, mean: 107.3 mmHg
[57]
  diastolic pressure, mean: 79 mmHg
  systolic pressure, mean: 122.3 mmHg
[58]
  diastolic pressure, mean: 77 mmHg
  systolic pressure, mean: 117.5 mmHg
[59]
  diastolic pressure, mean: 77 mmHg
  systolic pressure, mean: 120.5 mmHg
[60]
  diastolic pressure, mean: 76.25 mmHg
  systolic pressure, mean: 122.3 mmHg
[61]
  diastolic pressure, mean: 69.25 mmHg
  systolic pressure, mean: 110 mmHg
[62]
  diastolic pressure, mean: 68 mmHg
  systolic pressure, mean: 108 mmHg
[63]
  diastolic pressure, mean: 63.75 mmHg
  systolic pressure, mean: 107 mmHg
[64]
  diastolic pressure, mean: 67.5 mmHg
  systolic pressure, mean: 105 mmHg
